Measured values: patent publication US20260167622A1, “PAN-KRAS DEGRADING AGENT, AND PREPARATION METHOD THEREFOR AND USE THEREOF” (LEADINGTAC PHARMACEUTICAL (SHAOXING) CO., LTD., priority 2022, published 2026)

Assays:
Assay type in all cases: cell-based
[1] = tested on: KRAS WT human gastric cancer cell MKN1; test: 3D cell proliferation inhibition assay, MKN1; conditions: MKN-1, 168 h, 3D culture, 7 days, CTG
Summary of the method: (§1)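 Seven-day 3D growth at 37 °C in low-adsorption wells, 5×10^2 cells/well except MKN1 (1×10^3), final compound range 10000–0.026 nM in 0.2% DMSO. CTG luminescence read-out; percent inhibition set against DMSO and medium-only wells, IC50 by curve fitting.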

[2] = tested on: KRAS G12D mutant human metastatic pancreatic cancer cell AsPc-1; test: 3D cell proliferation inhibition assay, AsPc-1; conditions: ASPC1, 168 h, 3D culture, 7 days, CTG
Summary of the method: as §1

[3] = target: T1, KRAS G12V protein in SW900 cells (Homo sapiens, UniProt P01116, G12V); test: KRAS degradation assay (Western Blot) in SW900 cells; conditions: 24 h
T1 construct: endogenous in cells; host or cells: SW900
Summary of the method: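 DC50 and Dmax were fitted from KRAS band intensity, corrected to β-actin and expressed against untreated control, after Western blotting of 5 μg lysate protein. Cells were exposed for 24 h at 37 °C to 0.03-3000 nM compound (final) with 0.25% DMSO.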

[4] = tested on: KRAS G12C mutant human non-small cell lung cancer cell NCI-H358; test: 3D cell proliferation inhibition assay, NCI-H358; conditions: NCI-H358, 168 h, 3D culture, 7 days, CTG
Summary of the method: as §1

[5] = tested on: KRAS G12V mutant human colorectal cancer cell SW620; test: 3D cell proliferation inhibition assay, SW620; conditions: SW-620, 168 h, 3D culture, 7 days, CTG
Summary of the method: as §1

[6] = tested on: KRAS G12D mutant human gastric cancer cell AGS; test: 3D cell proliferation inhibition assay, AGS; conditions: 168 h, 3D culture, 7 days, CTG
Text: (§2) Test Example 6: 3D Cell Proliferation Inhibition Assay
(§3) The inhibitory effects of the compounds on 3D cell proliferation were investigated on KRAS G12C mutant human non-small cell lung cancer cell NCI-H358, KRAS G12D mutant human lung cancer cell A427, KRAS G12D mutant human gastric cancer cell AGS, KRAS G12D mutant human metastatic pancreatic cancer cell AsPc-1, KRAS G12V mutant human lung squamous carcinoma cell SW900, KRAS G12V mutant human colorectal cancer cell SW620, KRAS G13D mutant human colorectal cancer epithelial cell DLD-1, and KRAS WT human gastric cancer cell MKN1. The specific procedures were as follows:
(§4) 10 μL of each compound solution diluted in a gradient was added to corresponding wells of a 96-well low-adsorption microplate (PerkinElmer), so that the final concentrations of the test compounds in the reaction system were in a range of 10000-0.026 nM. The final concentration of DMSO was 0.2%. Then 90 µL of cells were correspondingly seeded into each well to achieve a cell density of 5×10^2 cells/well (the cell density of SW900 was 5×10^3 cells/well, and the cell density of MKN1 was 1×10^3 cells/well). In addition to test wells for the test compounds, both a DMSO control well and a medium control well were set, with the DMSO control well containing DMSO and cells and the medium well containing only a medium. After the sample loading, the 96-well low-adsorption microplate was incubated in an incubator at 37° C. with […] for 7 days. After 7 days, the microplate was taken out, and 100 μL of CTG reagent (Promega) was added to each well. The plate was incubated at room temperature for 60 m and read on a microplate reader EnVision by the chemiluminescence program. The inhibition rates of the compounds at each concentration were calculated using the formula for the percentage inhibition of cell proliferation: inhibition rate 00=(mean value of DMSO control group−single concentration reading value of compound)/(mean value of DMSO control group−mean value of medium control group)×100. Then non-linear curve fillings for logarithmic concentration-inhibition rate were performed by GraphPad Prism 8, and the IC50 values of the compounds were obtained (Table 6).

[7] = tested on: KRAS G13D mutant human colorectal cancer epithelial cell DLD-1; test: 3D cell proliferation inhibition assay, DLD-1; conditions: DLD-1, 168 h, 3D culture, 7 days, CTG
Summary of the method: as §1

[8] = tested on: KRAS G12D mutant human lung cancer cell A427; test: 3D cell proliferation inhibition assay, A427; conditions: A-427, 168 h, 3D culture, 7 days, CTG
Text: as §2, §3, §4

[9] = tested on: KRAS G12V mutant human lung squamous carcinoma cell SW900; test: 3D cell proliferation inhibition assay, SW900; conditions: SW900, 168 h, 3D culture, 7 days, CTG

T1 sequence (P01116 1-188 isoform P01116-2 G12V): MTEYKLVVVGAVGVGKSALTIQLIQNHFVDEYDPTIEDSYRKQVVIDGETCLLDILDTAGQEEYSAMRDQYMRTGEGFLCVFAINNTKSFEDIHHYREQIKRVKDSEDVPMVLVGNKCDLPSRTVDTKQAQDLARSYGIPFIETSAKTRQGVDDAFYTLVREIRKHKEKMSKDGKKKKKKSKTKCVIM

IC50 [1] [nM]	IC50 [2] [nM]	DC50 [3] [nM]	Dmax [3] [%]	IC50 [4] [nM]	IC50 [5] [nM]	IC50 [6] [nM]	IC50 [7] [nM]	IC50 [8] [nM]	IC50 [9] [nM]	Structure (SMILES)
≤ 50	≤ 50	≤ 50	80 to 100	100 to 500	2.11	≤ 50	≤ 50	100 to 500	≤ 50	CCc1cccc2cc(O)cc(-c3ncc4c(N5CCC[C@@](C)(O)C5)nc(OCC5(CN6CCN(CC7CCC8(CC7)CCN(C(=O)c7ccc(C)c(N9CCC(=O)NC9=O)c7)CC8)CC6)CC5)nc4c3F)c12 [Example 26, (R)-1-(5-(9-((4-((1-(((7-(8-ethyl-3-hydroxynaphthalen-1-yl)-8-fluoro-4-(3-hydroxy-3-methylpiperidin-1-yl)pyrido[4,3-d]pyrimidin-2-yl)oxy)methyl)cyclopropyl)methyl)piperazin-1-yl)methyl)-3-azaspiro[5.5]undecane-3-carbonyl)-2-methylphenyl)dihydropyrimidine-2,4(1H,3H)-dione]
50 to 100	≤ 50	≤ 50	80 to 100	50 to 100	7.71	≤ 50	≤ 50	≤ 50	50 to 100	C#Cc1c(F)ccc2cc(O)cc(-c3ccc4c(N5CCC[C@@](C)(O)C5)nc(OCC5(CN6CCN(CC7CCC8(CC7)CCN(C(=O)c7ccc(Cl)c(N9CCC(=O)NC9=O)c7)CC8)CC6)CC5)nc4c3F)c12 [Example 33, (R)-1-(2-chloro-5-(9-((4-((1-(((7-(8-ethynyl-7-fluoro-3-hydroxynaphthalen-1-yl)-8-fluoro-4-(3-hydroxy-3-methylpiperidin-1-yl)quinazolin-2-yl)oxy)methyl)cyclopropyl)methyl)piperazin-1-yl)methyl)-3-azaspiro[5.5]undecane-3-carbonyl)phenyl)dihydropyrimidine-2,4(1H,3H)-dione]
≤ 50	≤ 50	≤ 50	80 to 100	50 to 100	3.36	≤ 50	≤ 50	50 to 100	≤ 50	C#Cc1c(F)ccc2cc(O)cc(-c3ncc4c(N5CCCOCC5)nc(OCC5(CN6CCN(CC7CCC8(CC7)CCN(C(=O)c7ccc(C)c(N9CCC(=O)NC9=O)c7)CC8)CC6)CC5)nc4c3F)c12 [Example 36, 1-(5-(9-((4-((1-(((7-(8-ethynyl-7-fluoro-3-hydroxynaphthalen-1-yl)-8-fluoro-4-(1,4-oxazepan-4-yl)pyrido[4,3-d]pyrimidin-2-yl)oxy)methyl)cyclopropyl)methyl)piperazin-1-yl)methyl)-3-azaspiro[5.5]undecane-3-carbonyl)-2-methylphenyl)dihydropyrimidine-2,4(1H,3H)-dione]
≤ 50	≤ 50	≤ 50	80 to 100	≤ 50	–	≤ 50	≤ 50	≤ 50	50 to 100	CCc1c(F)ccc2cc(O)cc(-c3ncc4c(N5CCC[C@@](C)(O)C5)nc(OCC5(CN6CCC(CCOCC7CCN(C(=O)c8ccc(Cl)c(N9CCC(=O)NC9=O)c8)CC7)CC6)CC5)nc4c3F)c12 [Example 5, (R)-1-(2-chloro-5-(4-((2-(1-((1-(((7-(8-ethyl-7-fluoro-3-hydroxynaphthalen-1-yl)-8-fluoro-4-(3-hydroxy-3-methylpiperidin-1-yl)pyrido[4,3-d]pyrimidin-2-yl)oxy)methyl)cyclopropyl)methyl)piperidin-4-yl)ethoxy)methyl)piperidine-1-carbonyl)phenyl)dihydropyrimidine-2,4(1H,3H)-dione]
≤ 50	≤ 50	≤ 50	80 to 100	≤ 50	0.82	≤ 50	≤ 50	100 to 500	≤ 50	CCc1c(F)ccc2cc(O)cc(-c3ncc4c(N5CCC[C@@](C)(O)C5)nc(OCC5(CN6CCN(CC7CCC8(CC7)CCN(C(=O)c7ccc(C)c(N9CCC(=O)NC9=O)c7)CC8)CC6)CC5)nc4c3F)c12 [Example 19, (R)-1-(5-(9-((4-((1-(((7-(8-ethyl-7-fluoro-3-hydroxynaphthalen-1-yl)-8-fluoro-4-(3-hydroxy-3-methylpiperidin-1-yl)pyrido[4,3-d]pyrimidin-2-yl)oxy)methyl)cyclopropyl)methyl)piperazin-1-yl)methyl)-3-azaspiro[5.5]undecane-3-carbonyl)-2-methylphenyl)dihydropyrimidine-2,4(1H,3H)-dione]
≤ 50	50 to 100	≤ 50	80 to 100	≤ 50	–	≤ 50	≤ 50	≤ 50	≤ 50	C#Cc1c(F)ccc2cc(O)cc(-c3ncc4c(N5CCC[C@@](C)(O)C5)nc(OCC5(CN6CCN(CCC7CCC8(CC7)CCN(C(=O)c7ccc(Cl)c(N9CCC(=O)NC9=O)c7)CC8)CC6)CC5)nc4c3F)c12 [Example 9, (R)-1-(2-chloro-5-(9-(2-(4-((1-(((7-(8-ethynyl-7-fluoro-3-hydroxynaphthalen-1-yl)-8-fluoro-4-(3-hydroxy-3-methylpiperidin-1-yl)pyrido[4,3-d]pyrimidin-2-yl)oxy)methyl)cyclopropyl)methyl)piperazin-1-yl)ethyl)-3-azaspiro[5.5]undecane-3-carbonyl)phenyl)dihydropyrimidine-2,4(1H,3H)-dione]
≤ 50	≤ 50	≤ 50	80 to 100	≤ 50	–	≤ 50	≤ 50	100 to 500	≤ 50	CCc1cccc2cc(O)cc(-c3ncc4c(N5CCC[C@@](C)(O)C5)nc(OCC5(CN6CCN(CC7CCC8(CC7)CCN(C(=O)c7ccc(F)c(N9CCC(=O)NC9=O)c7)CC8)CC6)CC5)nc4c3F)c12 [Example 28, (R)-1-(5-(9-((4-((1-(((7-(8-ethyl-3-hydroxynaphthalen-1-yl)-8-fluoro-4-(3-hydroxy-3-methylpiperidin-1-yl)pyrido[4,3-d]pyrimidin-2-yl)oxy)methyl)cyclopropyl)methyl)piperazin-1-yl)methyl)-3-azaspiro[5.5]undecane-3-carbonyl)-2-fluorophenyl)dihydropyrimidine-2,4(1H,3H)-dione]
50 to 100	≤ 50	≤ 50	80 to 100	100 to 500	–	≤ 50	≤ 50	50 to 100	≤ 50	C#Cc1c(F)ccc2cc(O)cc(-c3ncc4c(N5CCC[C@@H](O)C5)nc(OCC5(CN6CCN(CC7CCC8(CC7)CCN(C(=O)c7ccc(C)c(N9CCC(=O)NC9=O)c7)CC8)CC6)CC5)nc4c3F)c12 [Example 45, (R)-1-(5-(9-((4-((1-(((7-(8-ethynyl-7-fluoro-3-hydroxynaphthalen-1-yl)-8-fluoro-4-(3-hydroxypiperidin-1-yl)pyrido[4,3-d]pyrimidin-2-yl)oxy)methyl)cyclopropyl)methyl)piperazin-1-yl)methyl)-3-azaspiro[5.5]undecane-3-carbonyl)-2-methylphenyl)dihydropyrimidine-2,4(1H,3H)-dione]
